Results on 28 molecules are retold here after US4959361A, “Triazolo(4,3-A)(1,4)benzodiazepines and thieno (3,2-F)(1,2,4)triazolo(4,3-A)(1,4)diazepine compounds which have useful activity as platelet activating factor (PAF) antagonists” (Hoffmann-La Roche Inc., priority 1988, dated 1990).

For experiment [1], the target named is T1, PAF-binding, dog platelets (Canis lupus familiaris, UniProt A0A8I3NSH0).
T1 construct: dog platelets; from tissue; host or cells: washed platelets from citrated dog blood
T1 sequence (A0A8I3NSH0 1-343): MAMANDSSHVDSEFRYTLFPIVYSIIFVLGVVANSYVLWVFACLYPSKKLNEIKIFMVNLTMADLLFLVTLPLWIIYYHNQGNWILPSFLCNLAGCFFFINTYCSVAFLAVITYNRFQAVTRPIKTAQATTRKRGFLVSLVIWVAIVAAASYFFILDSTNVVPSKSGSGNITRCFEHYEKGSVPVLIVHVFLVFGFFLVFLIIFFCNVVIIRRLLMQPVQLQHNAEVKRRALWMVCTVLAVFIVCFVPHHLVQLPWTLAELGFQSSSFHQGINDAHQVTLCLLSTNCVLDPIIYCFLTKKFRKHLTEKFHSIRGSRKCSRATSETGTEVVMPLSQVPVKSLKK
Description: PAF binding assay (radiolabelled H-PAF, washed dog platelets). Conditions: 10 minutes at room temperature, read-out: PAF-binding IC-50. As for the experimental part: The binding assay was done in […] polyethylene microcentrifuge tubes (Beckman) containing 50 μl of an oil mixture of 2 parts Siliconol AR200 (Serva): 1 part Silicone Fluid (Arthur H. Thoma). Buffer, standards, or analogs (150 μl total volume) were added to the tubes. Radiolabelled H-PAF (50 μl) was then added to the tubes. The reaction was started by the addition of 50 μl of dog platelets (2×10^7 platelets). The tubes were capped, inverted several times to mix, and incubated for 10 minutes at room temperature. The platelets were separated from the incubation mixture by centrifuging 1 minute in a Beckman Microfuge B centrifuge. The tip of the microfuge tube was cut off, and the platelets were washed out of the tip with 200 μl of 50% methanol (Burdick and Jackson). Aquasol (NEN, 10 ml) was added and the radioactivity in the samples was determined using an LS 8100 Beckman liquid scintillation counter linked to a Techtran tape recorder Data was processed through an in-house computer system. Alternatively, radioactivity was determined using a Searle Mark III liquid scintillation counter linked to a Iso-Data microprocessor.
(b) preparation of platelets
Blood was collected from anesthesized or unanesthesized dogs into 50 ml plastic centrifuge tubes containing 3.8% sodium citrate as the anticoagulant (1 volume of citrate/9 volumes of blood). The red cells were removed by centrifugation for 15 minutes at 600 rpm (100-125 g) at room temperature. An aliquot of the supernatant platelet rich plasma (PRP) was saved for cell counting and the remainder was acidified to pH 6.5 with 0.15M citric acid. The platelet pellet was obtained after a 10 minute centrifugation at 2000 rpm (1000 g) at room temperature. Washed platelets were prepared by resuspending the platelet pellet once with pBS containing 1 mM EDTA, centrifuging as noted, and then resuspending the platelets in 0.1% BSA pBS. An aliquot of the washed platelets was counted. Platelets used for binding assays were diluted to 2×10^7 platelets/assay tube (4×10^8 platelets/ml). platelet countinq was done using a Royco Cell-Crit 921.

Experiment [2] concerns PAF Induced Bronchoconstriction. Description: PAF induced bronchoconstriction assay, oral testing. The class given is in vivo, guinea pig. As to conditions: Cavia porcellus, po, 2 hr; for ED50: p.o., read-out: Bronchoconstriction ID-50 p.o. 2 hr; for inhibition in vivo at 0.3 mg/kg: at a dose of 0.3 mg/kg p.o.; for inhibition in vivo at 3 mg/kg: Table II (*), 3 mg/kg p.o.
Experiment [3] has the same test system. Briefly: PAF induced bronchoconstriction assay, intravenous testing. The class given is in vivo, guinea pig. Conditions: for ED50: Cavia porcellus, iv, 1 min, i.v., 1 minute pretreatment, PAF 1 μg/kg i.v., read-out: Bronchoconstriction ID-50 i.v.; for % inhibition of bronchoconstriction: Table II (*), at 0. mg/kg i.v. (dose digit cut off). The procedure: Male animals (Hartlet Strain, 400-500 g were anesthetized with urethane (2 g/kg, i.p.). Each animals' trachea was cannulated and the guinea pigs were respirated using a Harvard small animal rodent respirator (3.0 cc stroke volume, 40 breaths per min.). Tracheal pressure was recorded from a cannula inserted in the trachea and connected to a Statham pressure transducer.
The jugular vein was cannulated for administering compounds. Spontaneous breathing was arrested with succinylcholine (1.2 mg/kg, i.v.) administered 2 minutes prior to intravenous injection of platelet activating factor PAF).
For the intravenous testing, the guinea pig is given a 1-minute pretreatment with propranolol at a dose of 0.1 mg/kg intravenously. The test compound is administered with a 1 minute pretreatment prior to intravenous challenge with PAF. The animal is then challenged with a 1 μg/kg intravenous dose of PAF and the change in tracheal pressure is measured.
The change in tracheal pressure is determined by subtracting the steady state baseline achieved after administration of succinylcholine from the peak broncho. constriction seen after challenge with PAF. The mean is calculated for each test compound and compared to the mean of the control animals to give the percent inhibition of bronchoconstriction. The standard error is calculated as the standard error of the mean.

Setting [4] is: Table I, triazolothienodiazepines.
Where [5] appears, read: Table II, triazolobenzodiazepines.

Where two headings read alike, the source gives them in different places.

On to `Cc1nnc2n1-c1sc(C#CCN3C(=O)CCc4cc(Cl)cc(Cl)c43)cc1C(c1ccccc1Cl)=NC2`, for which, in experiment [1] (setting [4]), the IC50 was less than 0.001 µM. In addition, the ED50 in experiment [2] (Table I) worked out at 0.021 mg/kg; in experiment [3] (Table I), 0.006 mg/kg.
As to `Cc1nnc2n1-c1ccc(C#CCCc3ccccc3)cc1C(c1ccccc1F)=NC2`, in experiment [1] (setting [5]), the IC50 was less than 0.001 µM. Moreover, the ED50 is more than 0.3 mg/kg in experiment [2] (Table II) and 0.006 mg/kg in experiment [3] (Table II).
As to `Cc1nnc2n1-c1sc(C#CCn3c4ccccc4c4ccccc43)cc1C(c1ccccc1Cl)=NC2`, in experiment [1] (setting [4]), the IC50 amounted to 0.12 µM. The ED50 in experiment [2] (Table I) and in experiment [3] (Table I) was 0.016 mg/kg each time.
Regarding `CCc1nnc2n1-c1ccc(C#CCN3C(=O)c4ccccc4C3=O)cc1C(c1ccccc1F)=NC2` [2-[3-[1-Ethyl-6-(2-fluorophenyl)-4H-[1,2,4]triazolo[4,3-a][1, 4]benzodiazepin-8-yl]-2-propynyl]-1H-isoindole-1,3(2H)dione semihydrate], in experiment [1] (setting [5]), the IC50 came to 0.1 µM. Besides, the results for the ED50 in experiment [2] (Table II) and in experiment [3] (Table II) were 1.5 mg/kg and 0.054 mg/kg, respectively.
With `Cc1nnc2n1-c1sc(C#CCN3Cc4cccc5cccc(c45)C3=O)cc1C(c1ccccc1Cl)=NC2`, in experiment [1] (setting [4]), the IC50 is 0.0035 µM. The results for the ED50 in experiment [2] (Table I) and in experiment [3] (Table I) were 0.009 mg/kg and 0.01 mg/kg, respectively.
Regarding `Cc1nnc2n1-c1sc(C#CCn3c(=O)c4c(ncn4C)n(C)c3=O)cc1C(c1ccccc1Cl)=NC2`, in experiment [1] (setting [4]), the IC50 was 0.007 µM. Moreover, the inhibition in vivo (in general, the change of the read-out against control, counted positive when it falls) at 0.3 mg/kg in experiment [2] (Table I) worked out at 38%. For the same molecule, in experiment [3] (Table I), the ED50 came out at 0.018 mg/kg.
In the case of `Cc1nnc2n1-c1sc(C#CCn3ccc4ccccc4c3=O)cc1C(c1ccccc1Cl)=NC2`, in experiment [1] (setting [4]), the IC50 was found to be 0.001 µM. Further, the ED50 was determined as 0.029 mg/kg in experiment [2] (Table I) and 0.007 mg/kg in experiment [3] (Table I).
As to `Cc1nnc2n1-c1ccc(C#CCN3C(=O)c4ccccc4C3=O)cc1C(c1ccccc1Cl)=NC2`, in experiment [1] (setting [5]), the IC50 turned out to be 0.02 µM. Besides, the ED50 in experiment [2] (Table II) was determined as 1.4 mg/kg; in experiment [3] (Table II), 0.019 mg/kg.
Turning to `Cc1nnc2n1-c1sc(C#CCN3C(=O)COc4ccccc43)cc1C(c1ccccc1Cl)=NC2`, the IC50 in experiment [1] (setting [4]) stood at 0.0007 µM. In addition, the ED50 was 0.019 mg/kg in experiment [2] (Table I) and 0.007 mg/kg in experiment [3] (Table I).
Turning to `Cc1nnc2n1-c1sc(C#CCN3C(=O)c4cccc5cccc(c45)C3=O)cc1C(c1ccccc1Cl)=NC2`, the IC50 in experiment [1] (setting [4]) was 0.012 µM. Further, the ED50 in experiment [2] (Table I) is 0.025 mg/kg; in experiment [3] (Table I) it was less than 0.1 mg/kg.
The matching figures for `Cc1nnc2n1-c1sc(C#CCn3c(=O)c4ccccc4c4ccccc43)cc1C(c1ccccc1Cl)=NC2`: 0.013 µM, 0.012 mg/kg and 0.016 mg/kg.
The matching figures for `Cc1nnc2n1-c1sc(C#CCN3C(=O)C4(C)CCCc5cccc3c54)cc1C(c1ccccc1Cl)=NC2` (stereo not drawn): 0.012 µM, 0.03 mg/kg and 0.013 mg/kg.
The like results for `Cc1nnc2n1-c1sc(C#CCN3C(=O)C(=O)c4ccccc43)cc1C(c1ccccc1Cl)=NC2` were, in that order, 0.007 µM, 0.06 mg/kg and less than 0.1 mg/kg.
As for `Cc1nnc2n1-c1sc(C#CCN3C(=O)COc4ccc(Cl)cc43)cc1C(c1ccccc1Cl)=NC2`, the IC50 in experiment [1] (setting [4]) is less than 0.001 µM. Moreover, the ED50 in experiment [2] (Table I) stood at 0.049 mg/kg; in experiment [3] (Table I), 0.004 mg/kg.
Consider `Cc1nnc2n1-c1sc(C#CCn3c4c(c5ccccc53)CCCC4)cc1C(c1ccccc1Cl)=NC2`, for which, in experiment [1] (setting [4]), the IC50 came out at 0.007 µM. Also, the ED50 in experiment [2] (Table I) is 0.006 mg/kg; in experiment [3] (Table I), 0.005 mg/kg.
As for `Cc1nnc2n1-c1sc(C#Cc3ccccn3)cc1C(c1ccccc1Cl)=NC2`, in experiment [1] (setting [4]), the IC50 worked out at 0.25 µM. In experiment [2] (Table I), this molecule returned an inhibition in vivo at 0.3 mg/kg of 5%. Also, the ED50 in experiment [3] (Table I) came to 0.056 mg/kg.
For `COC1c2ccccc2C(=O)N1CC#Cc1ccc2c(c1)C(c1ccccc1F)=NCc1nnc(C)n1-2` (stereo not drawn), in experiment [1] (setting [5]), the IC50 amounted to 0.1 µM. Besides, the inhibition in vivo at 3 mg/kg in experiment [2] stood at 100%. For the same molecule, the “% inhibition of bronchoconstriction” value in experiment [3] was 99%.
Consider `Cc1nnc2n1-c1sc(C#CCC34CCCc5cccc(c53)NC4=O)cc1C(c1ccccc1Cl)=NC2` (stereo not drawn), for which, in experiment [1] (setting [4]), the IC50 came out at 0.0007 µM. Also, the inhibition in vivo at 0.3 mg/kg in experiment [2] (Table I) turned out to be 24%. Further, the ED50 in experiment [3] (Table I) is 0.008 mg/kg.
Regarding `Cc1nnc2n1-c1ccc(C#CCN3C(=O)c4ccccc4C3=O)cc1C(c1ccccc1F)=NC2`, the IC50 in experiment [1] (setting [5]) worked out at 0.01 µM. For the same molecule, the ED50 in experiment [2] (Table II) amounted to 0.52 mg/kg; in experiment [3] (Table II) it was 0.013 mg/kg.
`Cc1nnc2n1-c1sc(C#CCn3ncc4ccccc43)cc1C(c1ccccc1Cl)=NC2`: in experiment [1] (setting [4]), the IC50 amounted to 0.001 µM. Moreover, the ED50 in experiment [2] (Table I) stood at 0.015 mg/kg; in experiment [3] (Table I) it was 0.002 mg/kg.
The like results for `Cc1nnc2n1-c1sc(C#CCn3c(=O)ccc4ccccc43)cc1C(c1ccccc1Cl)=NC2` were, in that order, 0.002 µM, 0.016 mg/kg and 0.006 mg/kg.
`Cc1nnc2n1-c1ccc(C#CCN3C(=O)CCc4ccccc43)cc1C(c1ccccc1F)=NC2`: in experiment [1] (setting [5]), the IC50 came out at 0.02 µM. For the same molecule, the results for the ED50 in experiment [2] (Table II) and in experiment [3] (Table II) were 0.44 mg/kg and 0.015 mg/kg, respectively.
As for `Cc1nnc2n1-c1sc(C#CCn3c(=O)c4ccccc4c4ccccc4c3=O)cc1C(c1ccccc1Cl)=NC2`, in experiment [1] (setting [4]), the IC50 was found to be 0.051 µM. In addition, the ED50 is 0.015 mg/kg in experiment [2] (Table I) and 0.01 mg/kg in experiment [3] (Table I).
With `C#Cc1cc2c(s1)-n1c(C)nnc1CN=C2c1ccccc1Cl`, the IC50 in experiment [1] (setting [4]) was 0.01 µM. Moreover, the inhibition in vivo at 0.3 mg/kg in experiment [2] (Table I) was found to be 17%. Also, the ED50 in experiment [3] (Table I) is 0.02 mg/kg.
On to `Cc1nnc2n1-c1ccc(C#CCN3C(=O)c4cccc5cccc3c45)cc1C(c1ccccc1F)=NC2`, for which the IC50 in experiment [1] (setting [5]) is 0.02 µM. Besides, testing at 3 mg/kg in experiment [2] gave an inhibition in vivo of 57%. Further, in experiment [3], the “% inhibition of bronchoconstriction” value is listed as 99%.
For the molecule `Cc1nnc2n1-c1sc(C#CCn3c(=O)n(-c4ccccc4)c4ccccc43)cc1C(c1ccccc1Cl)=NC2`, the IC50 in experiment [1] (setting [4]) was less than 0.001 µM. In addition, the ED50 in experiment [2] (Table I) was 0.015 mg/kg; in experiment [3] (Table I), 0.008 mg/kg.
For the molecule `Cc1nnc2n1-c1sc(C#CCN3C(=O)CCc4ccccc43)cc1C(c1ccccc1Cl)=NC2`, in experiment [1] (setting [4]), the IC50 was determined as 0.0002 µM. Moreover, the ED50 in experiment [2] (Table I) was 0.015 mg/kg; in experiment [3] (Table I), 0.004 mg/kg.
For `Cc1nnc2n1-c1sc(C#CCn3cnc4c3c(=O)n(C)c(=O)n4C)cc1C(c1ccccc1Cl)=NC2`, in experiment [1] (setting [4]), the IC50 was 0.02 µM. In addition, in experiment [2] (Table I), the inhibition in vivo at 0.3 mg/kg was 27%. For the same molecule, the ED50 in experiment [3] (Table I) was found to be 0.043 mg/kg.
